{"source": "patent US11680086B2", "about": "“Lipopeptide for potently inhibiting HIV, derivative thereof, pharmaceutical composition thereof and use thereof” (Institute of Pathogen Biology, Chinese Academy of Medical …, priority 2017, dated 2023)", "key": {"[1]": {"system": "35 HIV-1 pseudoviruses (subtypes A, B, B', C, G, A/C, A/E, B/C)"}, "[2]": {"system": "HIV-1 strain NL4-3 (NL4-3D36G)", "test": "antiviral activity in serum of macaque after subcutaneous injection", "type": "in vivo, macaques (rhesus monkeys)", "conditions": "3 mg/kg subcutaneous", "protocol": "The specific method was as follows: 6 experimental macaques (rhesus monkeys) were selected, half male and half female, aged 3-4 years old, weighing 3.4-4.7 kg. […] The serum was separated according to a conventional method. The injection interval of each inhibitor was more than 2 weeks to ensure that there was no residue of the previous analyte. The serum activity against the HIV-1 strain NL4-3 (NL4-3D36G) was measured according to the experimental method of the pseudovirus-based assay in the above examples. The serum was diluted by 3 folds. […] Therefore, the lipopeptides of the present invention were not only potent but also were long-lasting effective."}, "[3]": {"system": "NL4-3 pseudovirus carrying T-20 resistance mutation site of NHR", "test": "inhibition of T-20 resistant strains", "type": "cell-based, HIV-1", "conditions": "strains with single or double mutations"}}, "note": "Peptide text beside a SMILES is read from it. * marks the point of attachment. Palmitoyl = CCCCCCCCCCCCCCCC(=O)*", "data": [{"smiles": "CCCCCCCCCCCCCCCC(=O)NCCCC[C@H](NC(=O)[C@H](CCC(=O)O)NC(=O)[C@H](CC(C)C)NC(=O)[C@H](CCCCN)NC(=O)[C@H](CCCCN)NC(=O)[C@H](CC(C)C)NC(=O)[C@H](CCC(=O)O)NC(=O)[C@H](CCC(=O)O)NC(=O)[C@H](CCC(=O)O)NC(=O)[C@H](CC(N)=O)NC(=O)[C@H](CCCCN)NC(=O)[C@H](CCCCN)NC(=O)[C@H](CCC(N)=O)NC(=O)[C@H](CCC(N)=O)NC(=O)[C@H](CCC(=O)O)NC(=O)[C@H](CCC(=O)O)NC(=O)[C@H](C)NC(=O)[C@H](CCCCN)NC(=O)[C@H](CCCCN)NC(=O)[C@H](CC(C)C)NC(=O)[C@H](CC(C)C)NC(=O)[C@H](CCC(=O)O)NC(=O)[C@H](CCC(=O)O)NC(=O)[C@@H](NC(=O)[C@H](CC(N)=O)NC(=O)[C@H](C)NC(=O)[C@H](CCC(=O)O)NC(=O)[C@H](CC(C)C)NC(C)=O)[C@@H](C)CC)C(N)=O", "note": "[LP-51] (Ac-LEANIEELLKKAEEQQKKNEEELKKLEK(Palmitoyl)-NH2)", "values": [{"measurement": "IC50", "setting": "[1]; read-out: average IC50 for inhibition of various types of HIV-1 pseudoviruses, average over 35 pseudoviruses", "result": 33, "unit": "pM"}, {"measurement": "inhibitory activity against different subtypes of HIV-1 as folds of T-20", "setting": "[1]; relative to T-20, from average IC50", "result": 1255, "unit": "folds"}, {"measurement": "maximum serum dilution multiple for inhibiting 50% of NL4-3 infectivity", "setting": "[2]; 4 hour after injection", "result": 700482, "unit": "folds"}, {"measurement": "maximum serum dilution multiple for inhibiting 50% of NL4-3 infectivity", "setting": "[2]; 6 hour after injection", "result": 584381, "unit": "folds"}, {"measurement": "maximum serum dilution multiple for inhibiting 50% of NL4-3 infectivity", "setting": "[2]; 72 hours (3 days) after injection", "result": 1122, "unit": "folds"}, {"measurement": "inhibitory activity against T-20 resistant strains (in words)", "setting": "[3]", "result": "thousands to tens of thousands of times better than that of the LP-40"}]}]}
